In patent US20250230193A1, “CYCLIC COMPOUND HAVING SELECTIVE KRAS INHIBITORY EFFECT ON HRAS AND NRAS” (CHUGAI SEIYAKU KABUSHIKI KAISHA, priority 2022, published 2025):

Columns and labels:
[1] = molecular target: GDP-bound NRAS wild-type protein (Homo sapiens, UniProt P01111); experiment: Binding to NRAS by surface plasmon resonance (SPR), Single Cycle Kinetics; conditions: KD ratio NRAS/KRAS, class symbols
[2] = molecular target: GDP-bound HRAS wild-type protein (Homo sapiens, UniProt P01112); experiment: Binding to HRAS by surface plasmon resonance (SPR), Single Cycle Kinetics; conditions: KD ratio HRAS/KRAS, class symbols
Chain of GDP-bound HRAS wild-type protein (P01112 whole entry): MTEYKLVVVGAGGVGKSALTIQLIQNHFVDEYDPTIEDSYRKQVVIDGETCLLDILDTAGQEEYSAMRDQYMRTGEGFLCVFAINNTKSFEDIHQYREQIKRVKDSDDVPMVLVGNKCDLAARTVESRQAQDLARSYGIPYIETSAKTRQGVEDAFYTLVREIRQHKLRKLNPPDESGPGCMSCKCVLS

Chain of GDP-bound NRAS wild-type protein (P01111 whole entry): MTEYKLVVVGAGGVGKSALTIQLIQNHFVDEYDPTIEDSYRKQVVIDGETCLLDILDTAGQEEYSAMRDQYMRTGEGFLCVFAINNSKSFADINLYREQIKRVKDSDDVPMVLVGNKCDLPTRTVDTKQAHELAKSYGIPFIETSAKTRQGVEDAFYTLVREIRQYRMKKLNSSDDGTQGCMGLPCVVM

| SMILES | NRAS/KRAS (ratio of KD value with respect to GDP-bound NRAS wild-type protein to KD value with respect to KRAS) [1] | HRAS/KRAS (ratio of KD value with respect to GDP-bound HRAS wild-type protein to KD value with respect to KRAS) [2] |
| --- | --- | --- |
| CCC[C@H]1C(=O)N[C@@H]([C@@H](C)CC)C(=O)N(C)CC(=O)N(C)[C@H]2C/C=C\CCN(C2=O)[C@@H](Cc2ccc(C)cc2)C(=O)N(C)CC(=O)N[C@@H](CCc2cc(F)c(C(F)(F)F)c(F)c2)C(=O)N2C[C@H](OCC)C[C@H]2C(=O)NC2(CC(C)(C)C2)C(=O)N(C)[C@@H](CC2CCC2)C(=O)N(C)[C@H](C(=O)N(C)C)CC(=O)N1C [PP2751] | A (a compound having 10 or more and less than 20 is denoted as A) | A (a compound having 10 or more and less than 20 is denoted as A) |
| CCCOC[C@H]1C(=O)N[C@@H]([C@@H](C)CC)C(=O)N(C)CC(=O)N(C)[C@H]2C/C=C\CCN(C2=O)[C@@H](Cc2ccc(C)cc2)C(=O)N(C)CC(=O)N[C@@H](CCc2cc(F)c(C(F)(F)F)c(F)c2)C(=O)N2C[C@H](OCC)C[C@H]2C(=O)NC2(CC(C)(C)C2)C(=O)N(C)[C@@H](CC2CCC2)C(=O)N(C)[C@H](C(=O)N(C)C)CC(=O)N1C [PP2752] | A (a compound having 10 or more and less than 20 is denoted as A) | A (a compound having 10 or more and less than 20 is denoted as A) |
| CCC[C@H]1C(=O)N[C@@H]([C@@H](C)CC)C(=O)N(C)CC(=O)N(C)[C@H]2C/C=C\CCN(C2=O)[C@@H](Cc2ccc(C)cc2)C(=O)N(C)CC(=O)N[C@@H](CCc2ccc(C(F)(F)F)c(OC)c2)C(=O)N2C[C@H](OCC)C[C@H]2C(=O)NC2(CC(C)(C)C2)C(=O)N(C)[C@@H](CC2CCC2)C(=O)N(C)[C@H](C(=O)N(C)C)CC(=O)N1C [PP2753] | A (a compound having 10 or more and less than 20 is denoted as A) | B (a compound having 3 or more and less than 10 is denoted as B) |
| CCC[C@H]1C(=O)N[C@@H]([C@@H](C)CC)C(=O)N(C)CC(=O)N(C)[C@H]2C/C=C\CCN(C2=O)[C@@H](Cc2ccc(C)cc2)C(=O)N(C)CC(=O)N[C@@H](CCc2ccc(Cl)c(Cl)c2)C(=O)N2C[C@H](OCC)C[C@H]2C(=O)NC2(CC(C)(C)C2)C(=O)N(C)[C@@H](CC2CCC2)C(=O)N(C)[C@H](C(=O)N(C)C)CC(=O)N1C [PP2755] | A (a compound having 10 or more and less than 20 is denoted as A) | A (a compound having 10 or more and less than 20 is denoted as A) |
| CCC[C@H]1C(=O)N[C@@H]([C@@H](C)CC)C(=O)N(C2CC2)CC(=O)N(C)[C@H]2C/C=C\CCN(C2=O)[C@@H](Cc2ccc(C)cc2)C(=O)N(C)CC(=O)N[C@@H](CCc2ccc(Cl)c(Cl)c2)C(=O)N2C[C@H](OCC)C[C@H]2C(=O)NC2(CC(C)(C)C2)C(=O)N(C)[C@@H](CC2CCC2)C(=O)N(C)[C@H](C(=O)N(C)C)CC(=O)N1C [PP2761] | A (a compound having 10 or more and less than 20 is denoted as A) | A (a compound having 10 or more and less than 20 is denoted as A) |
| CCOC[C@H]1C(=O)N[C@@H]([C@@H](C)CC)C(=O)N(C2CC2)CC(=O)N(C)[C@H]2C/C=C\CCN(C2=O)[C@@H](Cc2ccc(C)cc2)C(=O)N(C)CC(=O)N[C@@H](CCc2ccc(Cl)c(Cl)c2)C(=O)N2C[C@H](OCC)C[C@H]2C(=O)NC2(CC(C)(C)C2)C(=O)N(C)[C@@H](CC2CCC2)C(=O)N(C)[C@H](C(=O)N(C)C)CC(=O)N1C [PP2762] | A (a compound having 10 or more and less than 20 is denoted as A) | A (a compound having 10 or more and less than 20 is denoted as A) |
| CCOC[C@H]1C(=O)N[C@@H]([C@@H](C)CC)C(=O)N(C)CC(=O)N(C)[C@H]2C/C=C\CCN(C2=O)[C@@H](Cc2ccc(C(F)(F)F)cc2)C(=O)N(C)CC(=O)N[C@@H](CCc2cc(F)c(C(F)(F)F)c(F)c2)C(=O)N2C[C@H](OCC)C[C@H]2C(=O)NC2(CC(C)(C)C2)C(=O)N(C)[C@@H](CC2CCC2)C(=O)N(C)[C@H](C(=O)N(C)C)CC(=O)N1C [PP2763] | A (a compound having 10 or more and less than 20 is denoted as A) | A (a compound having 10 or more and less than 20 is denoted as A) |
| CCC[C@H]1C(=O)N[C@@H]([C@@H](C)CC)C(=O)N(C)CC(=O)N(C)[C@H]2C/C=C\CCN(C2=O)[C@@H](Cc2ccc(C(F)(F)F)cc2)C(=O)N(C)CC(=O)N[C@@H](CCc2ccc(C(F)(F)F)c(OC)c2)C(=O)N2C[C@H](OCC)C[C@H]2C(=O)NC2(CC(C)(C)C2)C(=O)N(C)[C@@H](CC2CCC2)C(=O)N(C)[C@H](C(=O)N(C)C)CC(=O)N1C [PP2764] | A (a compound having 10 or more and less than 20 is denoted as A) | A (a compound having 10 or more and less than 20 is denoted as A) |
| CCOC[C@H]1C(=O)N[C@@H]([C@@H](C)CC)C(=O)N(C)CC(=O)N(C)[C@H]2C/C=C\CCN(C2=O)[C@@H](Cc2ccc(C(F)(F)F)cc2)C(=O)N(C)CC(=O)N[C@@H](CCc2ccc(C(F)(F)F)c(OC)c2)C(=O)N2C[C@H](OCC)C[C@H]2C(=O)NC2(CC(C)(C)C2)C(=O)N(C)[C@@H](CC2CCC2)C(=O)N(C)[C@H](C(=O)N(C)C)CC(=O)N1C [PP2765] | A (a compound having 10 or more and less than 20 is denoted as A) | A (a compound having 10 or more and less than 20 is denoted as A) |
| CCC[C@H]1C(=O)N[C@@H]([C@@H](C)CC)C(=O)N(C)CC(=O)N(C)[C@H]2C/C=C\CCN(C2=O)[C@@H](Cc2ccc(C(F)(F)F)cc2)C(=O)N(C)CC(=O)N[C@@H](CCc2ccc(Cl)c(Cl)c2)C(=O)N2C[C@H](OCC)C[C@H]2C(=O)NC2(CC(C)(C)C2)C(=O)N(C)[C@@H](CC2CCC2)C(=O)N(C)[C@H](C(=O)N(C)C)CC(=O)N1C [PP2766] | A (a compound having 10 or more and less than 20 is denoted as A) | A (a compound having 10 or more and less than 20 is denoted as A) |
| CCOC[C@H]1C(=O)N[C@@H]([C@@H](C)CC)C(=O)N(C)CC(=O)N(C)[C@H]2C/C=C\CCN(C2=O)[C@@H](Cc2ccc(C(F)(F)F)cc2)C(=O)N(C)CC(=O)N[C@@H](CCc2ccc(Cl)c(Cl)c2)C(=O)N2C[C@H](OCC)C[C@H]2C(=O)NC2(CC(C)(C)C2)C(=O)N(C)[C@@H](CC2CCC2)C(=O)N(C)[C@H](C(=O)N(C)C)CC(=O)N1C [PP2767] | A (a compound having 10 or more and less than 20 is denoted as A) | A (a compound having 10 or more and less than 20 is denoted as A) |
| CCC[C@H]1C(=O)N[C@@H]([C@@H](C)CC)C(=O)N(C2CC2)CC(=O)N(C)[C@H]2C/C=C\CCN(C2=O)[C@@H](Cc2ccc(C(F)(F)F)cc2)C(=O)N(C)CC(=O)N[C@@H](CCc2cc(F)c(C(F)(F)F)c(F)c2)C(=O)N2C[C@H](OCC)C[C@H]2C(=O)NC2(CC(C)(C)C2)C(=O)N(C)[C@@H](CC2CCC2)C(=O)N(C)[C@H](C(=O)N(C)C)CC(=O)N1C [PP2768] | A (a compound having 10 or more and less than 20 is denoted as A) | A (a compound having 10 or more and less than 20 is denoted as A) |
| CCO[C@@H]1C[C@H]2C(=O)NC3(CC(C)(C)C3)C(=O)N(C)[C@@H](CC3CCC3)C(=O)N(C)[C@H](C(=O)N(C)C)CC(=O)N(C)[C@@H](COC)C(=O)N[C@@H]([C@@H](C)CC)C(=O)N(C3CC3)CC(=O)N(C)[C@H]3C/C=C\CCN(C3=O)[C@@H](Cc3ccc(C(F)(F)F)cc3)C(=O)N(C)CC(=O)N[C@@H](CCc3cc(F)c(C(F)(F)F)c(F)c3)C(=O)N2C1 [PP2769] | AA (a compound having 20 or more is denoted as AA) | A (a compound having 10 or more and less than 20 is denoted as A) |
| CCC[C@H]1C(=O)N[C@@H]([C@@H](C)CC)C(=O)N(C2CC2)CC(=O)N(C)[C@H]2C/C=C\CCN(C2=O)[C@@H](Cc2ccc(C(F)(F)F)cc2)C(=O)N(C)CC(=O)N[C@@H](CCc2ccc(C(F)(F)F)c(OC)c2)C(=O)N2C[C@H](OCC)C[C@H]2C(=O)NC2(CC(C)(C)C2)C(=O)N(C)[C@@H](CC2CCC2)C(=O)N(C)[C@H](C(=O)N(C)C)CC(=O)N1C [PP2770] | A (a compound having 10 or more and less than 20 is denoted as A) | A (a compound having 10 or more and less than 20 is denoted as A) |
| CCO[C@@H]1C[C@H]2C(=O)NC3(CC(C)(C)C3)C(=O)N(C)[C@@H](CC3CCC3)C(=O)N(C)[C@H](C(=O)N(C)C)CC(=O)N(C)[C@@H](COC)C(=O)N[C@@H]([C@@H](C)CC)C(=O)N(C3CC3)CC(=O)N(C)[C@H]3C/C=C\CCN(C3=O)[C@@H](Cc3ccc(C(F)(F)F)cc3)C(=O)N(C)CC(=O)N[C@@H](CCc3ccc(C(F)(F)F)c(OC)c3)C(=O)N2C1 [PP2771] | AA (a compound having 20 or more is denoted as AA) | A (a compound having 10 or more and less than 20 is denoted as A) |
